This is an account of results in ChEMBL document CHEMBL4387753 (Bioorg Med Chem, 2019).

What is called MIC is the lowest concentration found to suppress growth. The low end stands for greater potency, the high end for weaker potency. In general, half-life refers to the time needed for the level to fall by half in the phase considered. By IC50 is commonly meant the midpoint of a concentration-inhibition curve. A lower IC50 goes with higher potency. By MBC is commonly meant the smallest concentration meeting the test's criterion for killing.

≈ marks a conversion by molar mass, not a printed value. Calls of active or inactive are those of the source.

For one series, the system named is Bacillus subtilis. The series can be described thus: Antibacterial activity against Bacillus subtilis ATCC 9372 incubated for 24 hrs by CLSI protocol based broth microdilution method. The following applies: ATCC 9372, 24 h. The class given is functional. (In broth dilution the organism is exposed to a series of concentrations in liquid medium.)
Series [1] concerns Bacillus pumilus. Briefly: Antibacterial activity against Bacillus pumilus CMCC63202 incubated for 24 hrs by CLSI protocol based broth microdilution method. The class given is functional. The following applies: CMCC63202, 24 h.
For series [2], the system named is Staphylococcus aureus. The series can be described thus: Antibacterial activity against Staphylococcus aureus ATCC 25923 incubated for 24 hrs by CLSI protocol based broth microdilution method. The class given is functional. The following applies: ATCC 25923, 24 h.
In series [3] the test system is Staphylococcus aureus. The series can be described thus: Antibacterial activity against methicillin-resistant Staphylococcus aureus ATCC 43300 incubated for 24 hrs by CLSI protocol based broth microdilution method. The class given is functional. To be noted: ATCC 43300, 24 h.
In series [4] the test system is Staphylococcus aureus. Briefly: Antibacterial activity against penicillin-resistant Staphylococcus aureus clinical isolate incubated for 24 hrs by CLSI protocol based broth microdilution method. The class given is functional.
Series [5] deals with Staphylococcus aureus. Briefly: Antibacterial activity against Staphylococcus aureus clinical isolate incubated for 24 hrs by CLSI protocol based broth microdilution method. The class given is functional.
For another series, the system named is Escherichia coli. Briefly: Antibacterial activity against Escherichia coli ATCC 25922 incubated for 24 hrs by CLSI protocol based broth microdilution method. The class given is functional. To be noted: ATCC 25922, 24 h.
The subject of another series is Pseudomonas aeruginosa. Briefly: Antibacterial activity against Pseudomonas aeruginosa ATCC 27853 incubated for 24 hrs by CLSI protocol based broth microdilution method. The class given is functional. The following applies: ATCC 27853, 24 h.
For series [6], the system named is Staphylococcus aureus. Briefly: Ratio of MBC for Staphylococcus aureus ATCC 25923 to MIC for Staphylococcus aureus ATCC 25923. The class given is functional.
Series [7] relates to Staphylococcus aureus. The series can be described thus: Bactericidal activity against methicillin-resistant Staphylococcus aureus ATCC 43300 assessed as log reduction in viable bacterial count at 1 to 8 times MIC incubated for 24 hrs by time-kill curve assay. The class given is functional.
Series [8] has as its system Bacillus pumilus. Briefly: Effect on bacterial cell morphology in Bacillus pumilus CMCC63202 assessed as increase in bacterial cell length at 0.5 times MIC incubated for 18 hrs by phase-contrast optical microscopic analysis. The class given is functional, organism-based.
Series [9] addresses T1, Cell division protein FtsZ (Bacillus subtilis (strain 168)) (UniProt P17865).
T1 sequence (whole entry): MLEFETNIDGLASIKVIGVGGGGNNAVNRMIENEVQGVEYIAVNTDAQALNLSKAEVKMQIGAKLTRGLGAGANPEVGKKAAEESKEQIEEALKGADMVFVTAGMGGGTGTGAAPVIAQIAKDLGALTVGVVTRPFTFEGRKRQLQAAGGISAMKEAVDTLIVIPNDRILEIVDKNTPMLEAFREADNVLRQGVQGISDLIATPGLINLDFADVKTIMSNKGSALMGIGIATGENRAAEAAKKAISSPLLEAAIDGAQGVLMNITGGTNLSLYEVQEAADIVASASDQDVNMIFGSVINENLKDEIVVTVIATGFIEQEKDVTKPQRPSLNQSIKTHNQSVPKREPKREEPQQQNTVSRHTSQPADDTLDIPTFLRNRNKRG
Briefly: Induction of Bacillus subtilis FtsZ polymerization in presence of GTP measured over 30 mins by microtiter plate-based light-scattering assay.

Series [10] can be described thus: Stability in mouse plasma assessed as degradation of compound at 25 ug/ml incubated for 24 hrs by RP-HPLC analysis. The class given is ADME, cell-free.
A short description of series [11]: Half life in mouse plasma at 25 ug/ml incubated for 24 hrs by RP-HPLC analysis. The class given is ADME, cell-free.
Series [12] in a line: Clearance in mouse liver microsomes incubated for 20 mins in presence of NADPH by RP-HPLC analysis. The class given is ADME, Microsome. (Liver microsomes are vesicles of endoplasmic reticulum, rich in cytochrome P450 enzymes.)
A short description of series [13]: Half life in mouse liver microsomes in presence of NADPH by RP-HPLC analysis. The class given is ADME, Microsome.
Another series deals with HeLa. The series can be described thus: Growth inhibition of human HeLa cells incubated for 48 hrs by MTT assay. The class given is cell-based. In general terms: Tetrazolium assays rely on reduction of a dye to a coloured formazan, in cell work by metabolically active cells.
In series [14] the test system is Staphylococcus aureus. The series can be described thus: Bactericidal activity against Staphylococcus aureus ATCC 25923 assessed as 3 log reduction in number of colony forming units incubated for 24 hrs followed by aliquots transfer to tryptic soy agar and grown for 24 hrs. The class given is functional. The following applies: ATCC 25923, 24 h.
For series [15], the system named is Staphylococcus aureus. The series can be described thus: Bactericidal activity against Staphylococcus aureus ATCC 43300 assessed as 3 log reduction in number of colony forming units incubated for 24 hrs followed by aliquots transfer to tryptic soy agar and grown for 24 hrs. The class given is functional. To be noted: ATCC 43300, 24 h.
The subject of series [16] is Staphylococcus aureus. Briefly: Bactericidal activity against penicillin-resistant Staphylococcus aureus clinical isolate assessed as 3 log reduction in number of colony forming units incubated for 24 hrs followed by aliquots transfer to tryptic soy agar and grown for 24 hrs. The class given is functional.

In the case of `NC(=O)c1c(F)ccc(OCc2nn(-c3ccc(Br)cc3)c(=O)o2)c1F`, the MIC in the series with Bacillus subtilis stood at 0.125 µg/mL (≈ 0.293 µM); against Bacillus pumilus [1] it was 1 µg/mL (≈ 2.35 µM); in the series on Staphylococcus aureus [2], 1 µg/mL (≈ 2.35 µM); against Staphylococcus aureus [3], 1 µg/mL (≈ 2.35 µM); in the series with Staphylococcus aureus [4], 1 µg/mL (≈ 2.35 µM); against Staphylococcus aureus [5], 0.5 µg/mL (≈ 1.17 µM). The MIC against Escherichia coli and with Pseudomonas aeruginosa was above 64 µg/mL each time. The Ratio with Staphylococcus aureus [6] worked out at 1. Further, the Activity with Staphylococcus aureus [7] was 4 log10CFU/ml; in series [9], “Dose-dependent effect”. In the series on Bacillus pumilus [8], the outcome was Active. In addition, in series [10], the Stability entry is listed as “Unstable”. The compound further had a half-life at 25 ug/ml in series [11] of 2.5 h. The CLH in series [12] worked out at 24.3%. In addition, the half-life in [13] was above 1.5 h. For the same compound, the IC50 with HeLa is above 64 µg/mL. In addition, the MBC in the series on Staphylococcus aureus [14], in the series with Staphylococcus aureus [15] and with Staphylococcus aureus [16] was 1 µg/mL (≈ 2.35 µM) throughout.
